Results published in US8476276B2, “Pharmaceutical compositions based on kinin B2 receptor antagonists and corticosteroids, and their use” (Istituto Luso Farmaco d'Italia S.p.A., priority 2008, dated 2013).

How the values were obtained:
[1] = tested on: carrageenan-induced joint pain; assay: Carrageenan-induced knee arthritis, joint pain (incapacitance test); assay type: in vivo, rat
Experimental: (§1) The activity of MEN16132, icatibant and cortisones was measured in an experimental model of arthritis induced by intra-articular injection of carrageenan which causes a strong inflammatory effect. […] The weight imbalance on the two weight-bearing paws, evaluated in a non-invasive way with the incapacitance test, measures the pain resulting from the joint inflammation. The diameter of the knee joint was also measured to measure the oedema.

[2] = tested on: cell infiltration in the airways caused by LPS; assay: LPS-induced airway inflammation, leucocytes in bronchoalveolar washing; assay type: in vivo, guinea pig; settings: for reduction of the number of inflammatory cells in the airways after LPS: aerosol of a 1 mg/ml solution for 15 min
[3] = tested on: carrageenan-induced joint oedema; assay: Carrageenan-induced knee arthritis, joint oedema (knee joint diameter); assay type: in vivo, rat; settings: for reduction of carrageenan-induced knee swelling: hydrocortisone experiment, 100 μg i.a. 30 min before carrageenan
Experimental: as §1

[4] = tested on: human airway muscle cells; assay: LPS-induced PGE2 release in cultures of human airway muscle cells; assay type: cell-based; settings: LPS 1 μg/ml for 24 hours
Experimental: Similar findings were obtained with an in vitro model, in cultures of human airway muscle cells stimulated for 24 hours with 1 μg/ml LPS, where an approximately 16-fold increase in the production of PGE2 was observed compared with the control.

[5] = tested on: symptomatic OA of the knee; settings: cited from earlier work
[6] = 100 μg i.a. 30 min before carrageenan, 6 hours after the irritant
[7] = 100 μg/25 μl i.a. 30 min before carrageenan, maximum effect 6 hours

| SMILES | reduction of joint pain [1, 6] | reduction of the number of inflammatory cells in the airways after LPS [2] | reduction of carrageenan-induced oedema [3, 7] | reduction of carrageenan-induced knee swelling [3] | reduction of LPS-induced release of PGE2 ([4]; 100 nM) | reduction of joint pain ([1]; 10 μg i.a.) | reduction of cell infiltration in the airways after LPS ([2]; aerosol of a 0.03 mg/ml solution for 15 min) | reduction of carrageenan-induced oedema ([3]; dexamethasone 10 μg i.a.) | reduction of LPS-induced release of PGE2 ([4]; 1 μM) | duration of analgesic response after the treatment ([5]; intra-articular infiltration, 3×500 μg injections one week apart) | intensity of pain in the knee ([5]; phase II, single intra-articular administration 90 μg/1 ml, versus placebo) |
| --- | --- | --- | --- | --- | --- | --- | --- | --- | --- | --- | --- |
| Cc1cc(C)c2cccc(OCc3c(Cl)ccc(S(=O)(=O)NC4(C(=O)N5CCN(C(=O)[C@@H](N)CCC[N+](C)(C)C)CC5)CCOCC4)c3Cl)c2n1 [MEN16132, (4-(S)-amino-5-(4-{4-[2,4-dichloro-3-(2,4-dimethyl-quinolin-8-yloxymethyl)-benzenesulphonylamino]-tetrahydro-pyran-4-carbonyl}-piperazin-1-yl)-5-oxo-pentyl]-trimethyl-ammonium] | 38±4% | 6% | 45±3% | 42±3% | 39% | – | – | – | – | – | – |
| C[C@]12CCC(=O)C=C1CC[C@@H]1[C@@H]2[C@@H](O)C[C@@]2(C)[C@H]1CC[C@]2(O)C(=O)CO [hydrocortisone, Hydrocortisone] | – | – | – | −4±3% | – | – | – | – | – | – | – |
| C[C@@H]1C[C@H]2[C@@H]3CCC4=CC(=O)C=C[C@]4(C)[C@@]3(F)[C@@H](O)C[C@]2(C)[C@@]1(O)C(=O)CO [dexamethasone, Dexamethasone] | 44±3% | – | 57±3% | – | – | 14±4% | 8% | inactive | 45% | – | – |
| NC(N)=NCCC[C@@H](N)C(=O)N[C@@H](CCCN=C(N)N)C(=O)N1CCC[C@H]1C(=O)N1C[C@H](O)C[C@H]1C(=O)NCC(=O)N[C@@H](Cc1cccs1)C(=O)N[C@@H](CO)C(=O)N1Cc2ccccc2C[C@@H]1C(=O)N1[C@H](C(=O)N[C@@H](CCCN=C(N)N)C(=O)O)C[C@@H]2CCCC[C@@H]21 [icatibant, H-D-Arg-Arg-Pro-Hyp-Gly-Thi-Ser-D-Tic-Oic-Arg-OH] | – | 5% | 48±5% | – | 30% | – | – | – | – | up to 3 months | reduced the intensity of pain in the knee to a greater extent than the placebo |
